The values that follow come from PubChem BioAssay (NCI).

SMILES strings stand for the structures.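 Values below derive from 48-hour exposures of cells grown in 96-well plates, with endpoints linearly interpolated between the two concentrations bracketing the appropriate inhibition level. Abbreviation: GI50, concentration required for 50% inhibition of growth. The concentration for full growth arrest is given as TGI.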 *1 amine or outer side, *2 acyl side, *3 side chain or, on linkers, in order; H or OH if unused. Where a SMILES comes first, the peptide text is derived from it. [ ]: non-standard residue; d: D form. The star is where a group is joined. X12 = NCCCCC(N[*:1])C(=O)CN1CCCC1C(=O)[*:2]; Pentadecanoyl = CCCCCCCCCCCCCCC(=O)* Where only a bound is given, the exact number is not on record here.

Common to all, as to experiment: NCI tumour cell line growth inhibition, 48 h
Assay [1] deals with BT-549 breast.
In assay [2] the test system is COLO 205 colon.
Assay [3] concerns HCC-2998 colon.
Assay [4] has as its system HT29 colon.
In assay [5] the test system is NCI-H226 lung.
Assay [6] relates to NCI-H23 lung.
The subject of assay [7] is RPMI-8226 leukemia.
Assay [8] deals with SF-295 CNS.
Assay [9] has as its system SF-539 CNS.
Assay [10] deals with SK-MEL-5 melanoma.

With `CN1C(=O)[C@](C)(Cc2ccc(F)cc2)N(C(=O)OC(C)(C)C)[C@@H]1C(C)(C)C`, the TGI is above 100 µM in assay [1]; 39.7 µM in assay [2]; 76.2 µM in [3]; 45.6 µM in assay [4]; 67.3 µM in [5]; above 100 µM in assay [6]. Moreover, the TGI was 49.4 µM in [7], 50.7 µM in [8], above 100 µM in [9] and 37.6 µM in assay [10].

Take `Oc1[nH]c2ccccc2c1N=NC(=S)NCc1ccccn1`: the TGI in [1] was 17.5 µM; in assay [2], 13.6 µM; in assay [3], 16.5 µM; in [4] it was above 43 µM; in assay [5], 10.5 µM; in assay [6], 14.9 µM. The TGI is 53.9 µM in assay [7], 18 µM in assay [8], 5.06 µM in assay [9] and 12 µM in assay [10].

For `CC(=O)OCC12C(OC(C)=O)C[C@@H](C)C3(CC(c4ccoc4)OC3=O)C1CCC(OC(C)=O)C21CO1` (stereo not given in full), the TGI in [1], in assay [2], in [3], in [4], in [5] and in assay [6] was above 100 µM in each case. Besides, the TGI in assay [7], in [8], in assay [9] and in assay [10] was above 100 µM throughout.

In the case of `C(=N\Nc1nnc(-c2nnc(N/N=C/c3ccccc3)o2)o1)/c1ccccc1`, the TGI in assay [1], in assay [2], in [3], in [4], in assay [5] and in assay [6] was above 10 µM throughout. The TGI in [7], in [8], in [9] and in assay [10] was above 10 µM in each case.

Take `C=C1CC2C[C@H](OS(=O)(=O)c3ccc(C)cc3)C(C1)N2C` (stereo not given in full): the TGI in [1], in assay [2], in [3], in assay [4], in assay [5] and in [6] was above 100 µM each time. The TGI in assay [7], in assay [8], in [9] and in [10] was above 100 µM each time.

Consider `CCCCCCCCCCCCCCC(=O)NC(CCCCN)C(=O)CN1CCCC1C(=O)NCC(=O)NC(Cc1ccccc1)C(=O)N1CCCC1C(=O)NC(CO)C(=O)NC(Cc1ccc(O)cc1)C(=O)NC(CCCCN)C(=O)NC(CC(C)C)C(=O)NC(CCCN=C(N)N)C(=O)N1CCCC1C(=O)NCC(N)=O` (stereo not given) (Pentadecanoyl-[X12]GFPSYKLRPG-NH2; configuration not given here), for which the GI50 in assay [1] was 29.6 µM; in assay [2] it was 15.6 µM; in [3], 17.7 µM; in assay [4], 36.9 µM; in [5], 17.8 µM; in assay [6], 21.7 µM. Further, the GI50 in assay [7] was 14.7 µM; in assay [8], 26.2 µM; in assay [9], 27.2 µM; in assay [10], 30.5 µM. The TGI was 59.6 µM in [1]; 33.8 µM in assay [2]; 35.2 µM in [3]; above 100 µM in [4]; 38.6 µM in assay [5]; 49.6 µM in assay [6]. Moreover, the TGI was 30.8 µM in assay [7], 57.3 µM in assay [8], 59.9 µM in [9] and above 100 µM in assay [10].

Regarding `O=C1CCc2c(sc3ncnc(Nc4cccc(Br)c4)c23)C1`, the TGI in assay [1] was found to be 13.9 µM; in assay [2] it was 20.8 µM; in assay [3], 15 µM; in assay [4] it was 27 µM; in assay [5] it was 14.8 µM; in assay [6], 8.24 µM. Besides, the TGI in assay [7] was above 20.3 µM; in assay [8], 15.3 µM; in assay [9], 13.2 µM; in assay [10], 3.67 µM.

For `CC(=O)N1C(=O)/C(=C\C(=O)c2ccc(Cl)cc2)c2ccccc21`, the TGI in assay [1] was found to be 18.4 µM; in [2] it was 26.7 µM; in assay [3], 31.5 µM; in [4], 20.7 µM; in assay [5] it was 44.5 µM; in assay [6] it was 31.7 µM. In addition, the TGI in [7] was determined as 97.1 µM; in [8], 52.7 µM; in assay [9] it was 37.2 µM; in assay [10] it was 39.8 µM.

Regarding `Cc1cccc2c1C(=O)/C(=C/c1ccccc1C(=O)O)C2`, the TGI in [1], in [2], in [3], in [4], in assay [5] and in [6] was above 100 µM in each case. Further, the TGI in assay [7], in assay [8], in assay [9] and in assay [10] was above 100 µM in each case.

As to `N#Cc1nc(-c2ccccn2)c(-c2ccccn2)nc1C#N`, the TGI is 12.1 µM in assay [1]; 10.6 µM in [2]; 17.6 µM in [3]; 14.4 µM in assay [4]; 5.51 µM in assay [5]; 16.7 µM in assay [6]. The TGI in assay [7] is above 100 µM; in [8], 7.92 µM; in assay [9] it was 21.5 µM; in assay [10], above 36.5 µM.
